Experimental findings from patent US20240024302A1, “SOLUBLE EPOXIDE HYDROLASE (sEH) INHIBITORS AND DUAL COX/sEH INHIBITORS FOR THE TREATMENT OF ARRHYTHMOGENIC CARDIOMYOPATHY” (BETH ISRAEL DEACONESS MEDICAL CENTER, INC., priority 2020, published 2024) are described below.

One data set is described as follows: Mouse PK, single oral gavage. As to conditions: mouse, in vivo, po, 0.3 mg/kg, Mouse AUC, oral gavage, single dose 0.3 mg/kg, 20% PEG400 in oleic acid-rich triglyceride.
Take `O=C(Nc1ccc(OC(F)(F)F)cc1)NC1CCN(C(=O)c2ccoc2)CC1`: the AUC (usually the area under the concentration-time curve, a measure of exposure) stood at 2.93 µM·h.
Still for that read-out and setting: the same measure for `O=C(Nc1ccc(OC(F)(F)F)cc1)NC1CCN(C(=O)[C@@H]2CCOC2)CC1`: 0.656 µM·h; for `O=C(Nc1ccc(OC(F)(F)F)cc1)NC1CCN(C(=O)C2=COCC2)CC1`: 0.67 µM·h; for `Cc1ccoc1C(=O)N1CCC(NC(=O)Nc2ccc(OC(F)(F)F)cc2)CC1`: 4.56 µM·h.
Still for that read-out and setting: the figure for `O=C(Nc1ccc(OC(F)(F)F)cc1)NC1CCN(C(=O)C2CCCOC2)CC1` (stereo not drawn) is 0.634 µM·h.
Compound `O=C(Nc1ccc(C(F)(F)F)cc1)NC1CCN(C(=O)[C@@H]2CCOC2)CC1` came in with an AUC of 0.729 µM·h.
The compound `O=C(Nc1ccc(C(F)(F)F)cc1)NC1CCN(C(=O)C2=COCC2)CC1` registered an AUC of 0.875 µM·h.
Same read-out and setting: the same measure for `O=C(Nc1ccc(C(F)(F)F)cc1)NC1CCN(C(=O)C2CCCOC2)CC1` (stereo not drawn): 3.17 µM·h; for `O=C(Nc1ccc(C(F)(F)F)cc1)NC1CCN(C(=O)c2cc[nH]c2)CC1`: 0.083 µM·h; for `O=C(Nc1ccc(OC(F)(F)F)cc1)NC1CCN(C(=O)C2CCOC2)CC1` (stereo not drawn): 12.6 µM·h.
Same read-out and setting: the same measure for `O=C(Nc1ccc(C(F)(F)F)cc1)NC1CCN(C(=O)C2CCOC2)CC1` (stereo not drawn): 4.73 µM·h.
`O=C(O)CC1(CC(=O)N2CCC(NC(=O)Nc3ccc(C(F)(F)F)cc3)CC2)CCCCC1` registered an AUC of 11.6 µM·h.

The same data set, now with this note: mouse, in vivo, po, 0.3 mg/kg, Mouse Cmax, oral gavage, single dose 0.3 mg/kg.
For `O=C(Nc1ccc(OC(F)(F)F)cc1)NC1CCN(C(=O)c2ccoc2)CC1`, the Cmax (as a rule, the highest concentration seen after dosing) stood at 146 nM.
Same read-out and setting: the figure for `O=C(Nc1ccc(OC(F)(F)F)cc1)NC1CCN(C(=O)[C@@H]2CCOC2)CC1` is 50 nM; for `O=C(Nc1ccc(OC(F)(F)F)cc1)NC1CCN(C(=O)C2=COCC2)CC1` it is 58 nM; for `Cc1ccoc1C(=O)N1CCC(NC(=O)Nc2ccc(OC(F)(F)F)cc2)CC1` it is 294 nM.
Compound `O=C(Nc1ccc(OC(F)(F)F)cc1)NC1CCN(C(=O)C2CCCOC2)CC1` (stereo not drawn) came in with a maximum concentration (Cmax) of 31 nM.
On the same count and under the same terms, the same measure for `O=C(Nc1ccc(C(F)(F)F)cc1)NC1CCN(C(=O)[C@@H]2CCOC2)CC1`: 154 nM; for `O=C(Nc1ccc(C(F)(F)F)cc1)NC1CCN(C(=O)C2=COCC2)CC1`: 78 nM.
Still for that read-out and setting: the figure for `O=C(Nc1ccc(C(F)(F)F)cc1)NC1CCN(C(=O)C2CCCOC2)CC1` (stereo not drawn) is 199 nM.
Still for that read-out and setting: the same measure for `O=C(Nc1ccc(C(F)(F)F)cc1)NC1CCN(C(=O)c2cc[nH]c2)CC1`: 11 nM; for `O=C(Nc1ccc(OC(F)(F)F)cc1)NC1CCN(C(=O)C2CCOC2)CC1` (stereo not drawn): 703 nM; for `O=C(Nc1ccc(C(F)(F)F)cc1)NC1CCN(C(=O)C2CCOC2)CC1` (stereo not drawn): 342 nM.
As for `O=C(O)CC1(CC(=O)N2CCC(NC(=O)Nc3ccc(C(F)(F)F)cc3)CC2)CCCCC1`, the Cmax stood at 590 nM.
For the compound `O=C(Nc1ccc(C(F)(F)F)cc1)NC1CCN(C(=O)C2(C(F)(F)F)CC2)CC1`, the peak level (Cmax) was 6490 nM.

The data set is the same for the next values; noted with them: mouse, in vivo, po, 0.3 mg/kg, Mouse T1/2, oral gavage, single dose 0.3 mg/kg.
Consider `O=C(Nc1ccc(OC(F)(F)F)cc1)NC1CCN(C(=O)c2ccoc2)CC1`, for which the half-life (as a rule, how long it takes for the measured level to halve) was 306 min.
Still for that read-out and setting: the figure for `O=C(Nc1ccc(OC(F)(F)F)cc1)NC1CCN(C(=O)[C@@H]2CCOC2)CC1` is 204 min.
The same measure, in the same setting: the figure for `O=C(Nc1ccc(OC(F)(F)F)cc1)NC1CCN(C(=O)C2=COCC2)CC1` is 174 min.
Still for that read-out and setting: the same measure for `Cc1ccoc1C(=O)N1CCC(NC(=O)Nc2ccc(OC(F)(F)F)cc2)CC1`: 234 min; for `O=C(Nc1ccc(OC(F)(F)F)cc1)NC1CCN(C(=O)C2CCCOC2)CC1` (stereo not drawn): 318 min; for `O=C(Nc1ccc(C(F)(F)F)cc1)NC1CCN(C(=O)[C@@H]2CCOC2)CC1`: 72 min.
Take `O=C(Nc1ccc(C(F)(F)F)cc1)NC1CCN(C(=O)C2=COCC2)CC1`: the half-life was 168 min.
`O=C(Nc1ccc(C(F)(F)F)cc1)NC1CCN(C(=O)C2CCCOC2)CC1` (stereo not drawn) had a half-life of 246 min.
Still for that read-out and setting: the figure for `O=C(Nc1ccc(C(F)(F)F)cc1)NC1CCN(C(=O)c2cc[nH]c2)CC1` is 120 min.
On the same count and under the same terms, the figure for `O=C(Nc1ccc(OC(F)(F)F)cc1)NC1CCN(C(=O)C2CCOC2)CC1` (stereo not drawn) is 276 min; for `O=C(Nc1ccc(C(F)(F)F)cc1)NC1CCN(C(=O)C2CCOC2)CC1` (stereo not drawn) it is 414 min; for `O=C(O)CC1(CC(=O)N2CCC(NC(=O)Nc3ccc(C(F)(F)F)cc3)CC2)CCCCC1` it is 300 min.
Still for that read-out and setting: the same measure for `O=C(Nc1ccc(C(F)(F)F)cc1)NC1CCN(C(=O)C2(C(F)(F)F)CC2)CC1`: 21400 min.

Staying with this data set, now noted: mouse, in vivo, po, 0.3 mg/kg, Mouse Tmax, oral gavage, single dose 0.3 mg/kg.
As to `O=C(Nc1ccc(OC(F)(F)F)cc1)NC1CCN(C(=O)c2ccoc2)CC1`, the Tmax (as a rule, the time from dosing to the highest level) was found to be 7.3 h.
Still for that read-out and setting: the same measure for `O=C(Nc1ccc(OC(F)(F)F)cc1)NC1CCN(C(=O)[C@@H]2CCOC2)CC1`: 6.2 h; for `O=C(Nc1ccc(OC(F)(F)F)cc1)NC1CCN(C(=O)C2=COCC2)CC1`: 4.2 h; for `Cc1ccoc1C(=O)N1CCC(NC(=O)Nc2ccc(OC(F)(F)F)cc2)CC1`: 5.7 h.
On the same count and under the same terms, the same measure for `O=C(Nc1ccc(OC(F)(F)F)cc1)NC1CCN(C(=O)C2CCCOC2)CC1` (stereo not drawn): 7.6 h; for `O=C(Nc1ccc(C(F)(F)F)cc1)NC1CCN(C(=O)[C@@H]2CCOC2)CC1`: 1.7 h.
The same measure, in the same setting: the same measure for `O=C(Nc1ccc(C(F)(F)F)cc1)NC1CCN(C(=O)C2=COCC2)CC1`: 4.1 h.
`O=C(Nc1ccc(C(F)(F)F)cc1)NC1CCN(C(=O)C2CCCOC2)CC1` (stereo not drawn): the time to peak (Tmax) was 5.9 h.
On the same count and under the same terms, the same measure for `O=C(Nc1ccc(C(F)(F)F)cc1)NC1CCN(C(=O)c2cc[nH]c2)CC1`: 2.8 h; for `O=C(Nc1ccc(OC(F)(F)F)cc1)NC1CCN(C(=O)C2CCOC2)CC1` (stereo not drawn): 6.6 h.
Same read-out and setting: the same measure for `O=C(Nc1ccc(C(F)(F)F)cc1)NC1CCN(C(=O)C2CCOC2)CC1` (stereo not drawn): 6.8 h; for `O=C(O)CC1(CC(=O)N2CCC(NC(=O)Nc3ccc(C(F)(F)F)cc3)CC2)CCCCC1`: 7.4 h; for `O=C(Nc1ccc(C(F)(F)F)cc1)NC1CCN(C(=O)C2(C(F)(F)F)CC2)CC1`: 4.7 h.
